Test results taken from article PMC8165160, “Substrate Specificities and Inhibition Pattern of the Solute Carrier Family 10 Members NTCP, ASBT and SOAT” (Frontiers in Molecular Biosciences, 2021).
Where two headings read alike, the source gives them in different places.

Key:
ASBT = target: T1, ASBT (Homo sapiens, UniProt Q12908); experiment: Substrate screening: sodium-dependent uptake of radiolabeled compounds in ASBT-HEK293 cells; type: cell-based; conditions: radiolabeled bile acids 1 µM, 30 min, ASBT-HEK293, vs sodium-free control
T1 construct: The full-length open reading frames of NTCP, ASBT, and SOAT were cloned; expressed in transfected cells; host or cells: Flp-In T-REX HEK293 (ASBT-HEK293), tetracycline-induced
T1 sequence (Q12908 1-348): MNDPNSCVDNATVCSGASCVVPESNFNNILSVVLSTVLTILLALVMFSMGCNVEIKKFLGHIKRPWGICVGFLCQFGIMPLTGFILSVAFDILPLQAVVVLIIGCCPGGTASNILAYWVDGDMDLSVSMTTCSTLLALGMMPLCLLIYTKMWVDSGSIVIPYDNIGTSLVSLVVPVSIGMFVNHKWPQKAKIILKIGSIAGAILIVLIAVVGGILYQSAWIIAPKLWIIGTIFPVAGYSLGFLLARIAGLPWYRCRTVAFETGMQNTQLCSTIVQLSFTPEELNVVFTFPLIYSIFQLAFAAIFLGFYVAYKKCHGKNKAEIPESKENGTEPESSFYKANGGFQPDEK
Method: (§1) Stably SLC10 transporter transfected NTCP-HEK293, ASBT-HEK293, SOAT-HEK293 cells and the HEK293-FlpIn maternal cell line were seeded on 24-well plates (if not stated otherwise for individual assays). Well plates were coated with poly-D-lysine prior to seeding of 125,000 cells per well. Cells were grown with 1 ml of standard medium per well with or without tetracycline ([…]) for 72 h to induce carrier expression before respective assays were started. HEK293-FlpIn cells were cultivated with standard medium and served as control.
(§2) Uptake experiments were initiated by replacing the preincubation buffer by 500 μL transport buffer containing the radiolabeled test compound and were performed at 37°C. Transport was terminated by removing the transport buffer and washing five-times with ice-cold PBS. Cell monolayers were lysed in 1 N NaOH with 0.1% SDS and the cell-associated radioactivity was determined by liquid scintillation counting.
(§3) FIGURE 1 Comparative substrate screening for bile acids and sulfated steroids in NTCP-, ASBT-, and SOAT-HEK293 cells. Transport assays were performed with the indicated substrates in NTCP-HEK293, ABST-HEK293, SOAT-HEK293, and HEK293-FlpIn cells. Cells were washed and equilibrated with Na^+-containing transport buffer (filled bars) or with Na^+-free transport buffer (open bars) at 37°C. For uptake, cells were incubated with radiolabeled steroid compounds at a final concentration of 200 nM in Na^+-containing or Na^+-free transport buffer for 10 min. Radiolabeled bile acids were used at 1 µM concentrations and transport was analyzed over 30 min. HEK293-FlpIn cells served as additional controls. After the indicated time intervals, cells were washed with ice-cold PBS, lysed and subjected to liquid scintillation counting. […] 3-OH, trihydroxylated BAs; 2-OH, dihydroxylated BAs; 1-OH, monohydroxylated BAs.

NTCP [1] = target: T2, NTCP (Homo sapiens, UniProt Q14973); experiment: Substrate screening: sodium-dependent uptake of radiolabeled compounds in NTCP-HEK293 cells; type: cell-based; set-up: The full-length open reading frames of NTCP, ASBT, and SOAT were cloned; expressed in transfected cells; host or cells: Flp-In T-REX HEK293 (NTCP-HEK293), tetracycline-induced; conditions: NTCP-HEK293, vs sodium-free control
T2 sequence (Q14973 1-349): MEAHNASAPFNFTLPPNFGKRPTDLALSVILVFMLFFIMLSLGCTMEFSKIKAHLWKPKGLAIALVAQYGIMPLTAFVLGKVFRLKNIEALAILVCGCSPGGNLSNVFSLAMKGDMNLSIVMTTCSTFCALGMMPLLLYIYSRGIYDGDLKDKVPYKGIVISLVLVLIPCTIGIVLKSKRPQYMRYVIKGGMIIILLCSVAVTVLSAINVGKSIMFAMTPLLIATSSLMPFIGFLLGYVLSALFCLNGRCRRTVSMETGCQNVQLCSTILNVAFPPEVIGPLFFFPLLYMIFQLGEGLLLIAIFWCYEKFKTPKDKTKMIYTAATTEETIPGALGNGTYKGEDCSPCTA
Method: as §1, §2, §3

NTCP [2] = target: T2, NTCP; experiment: Transport inhibition in NTCP-HEK293 cells; conditions: NTCP-HEK293
[3] = radiolabeled bile acids 1 µM, 30 min

Molecule | Transport activity grading ASBT (mean uptake) (ASBT) | Transport activity grading NTCP (mean uptake) (NTCP [1]; [3]) | further results
C[C@H](CCC(=O)O)[C@H]1CC[C@H]2[C@@H]3[C@H](O)C[C@@H]4C[C@H](O)CC[C@]4(C)[C@H]3CC[C@]12C [Chenodeoxycholic acid] | + (Mean uptake of bile acids “+” for values below 500) | + (Mean uptake of bile acids “+” for values below 500) | 
C[C@H](CCC(=O)O)[C@H]1CC[C@H]2[C@@H]3[C@H](O)C[C@@H]4C[C@H](O)CC[C@]4(C)[C@H]3C[C@H](O)[C@]12C [Cholic acid] | + (Mean uptake of bile acids “+” for values below 500) | ++ (“++” for values between 500 and 1000) | 
C[C@H](CCC(=O)O)[C@H]1CC[C@H]2[C@@H]3CC[C@@H]4C[C@H](O)CC[C@]4(C)[C@H]3C[C@H](O)[C@]12C [Deoxycholic acid] | + (Mean uptake of bile acids “+” for values below 500) | + (Mean uptake of bile acids “+” for values below 500) | 
C[C@]12CC[C@@H]3c4ccc(O[C@@H]5O[C@H](C(=O)O)[C@@H](O)[C@H](O)[C@H]5O)cc4CC[C@H]3[C@@H]1CCC2=O [Estrone-3β-D-glucuronide] |  |  | Transport activity grading NTCP (mean uptake) (NTCP [1]; radiolabeled steroid compounds 200 nM, 10 min): + (Mean uptake “+” for values below 10)
CC(CCC(=O)NCC(=O)O)C1CCC2C3C(O)CC4CC(O)CCC4(C)C3CCC12C (stereo not shown) [Glycochenodeoxycholic acid] | ++ (“++” for values between 500 and 1000) | +++ (“+++” for values above 1000 pmol/mg protein/30 min) | 
C[C@H](CCC(=O)NCC(=O)O)[C@H]1CC[C@H]2[C@@H]3[C@H](O)C[C@@H]4C[C@H](O)CC[C@]4(C)[C@H]3C[C@H](O)[C@]12C [Glycocholic acid] | ++ (“++” for values between 500 and 1000) | +++ (“+++” for values above 1000 pmol/mg protein/30 min) | 
CC(CCC(=O)NCC(=O)O)C1CCC2C3CCC4CC(O)CCC4(C)C3CC(O)C12C (stereo not shown) [Glycodeoxycholic acid] | ++ (“++” for values between 500 and 1000) | +++ (“+++” for values above 1000 pmol/mg protein/30 min) | 
C[C@H](CCC(=O)NCC(=O)O)[C@H]1CC[C@H]2[C@@H]3[C@@H](O)C[C@@H]4C[C@H](O)CC[C@]4(C)[C@H]3CC[C@]12C [Glycoursodeoxycholic acid] | ++ (“++” for values between 500 and 1000) | +++ (“+++” for values above 1000 pmol/mg protein/30 min) | 
C[C@H](CCC(=O)NCCS(=O)(=O)O)[C@H]1CC[C@H]2[C@@H]3[C@H](O)C[C@@H]4C[C@H](O)CC[C@]4(C)[C@H]3CC[C@]12C [Taurochenodeoxycholic acid] | ++ (“++” for values between 500 and 1000) | +++ (“+++” for values above 1000 pmol/mg protein/30 min) | 
C[C@H](CCC(=O)NCCS(=O)(=O)O)[C@H]1CC[C@H]2[C@@H]3CC[C@@H]4C[C@H](O)CC[C@]4(C)[C@H]3C[C@H](O)[C@]12C [Taurodeoxycholic acid] | ++ (“++” for values between 500 and 1000) | +++ (“+++” for values above 1000 pmol/mg protein/30 min) | 
C[C@H](CCC(=O)NCCS(=O)(=O)O)[C@H]1CC[C@H]2[C@@H]3[C@@H](O)C[C@@H]4C[C@H](O)CC[C@]4(C)[C@H]3CC[C@]12C [Tauroursodeoxycholic acid] | ++ (“++” for values between 500 and 1000) | +++ (“+++” for values above 1000 pmol/mg protein/30 min) | 
C[C@H](CCC(=O)O)[C@H]1CC[C@H]2[C@@H]3[C@@H](O)C[C@@H]4C[C@H](O)CC[C@]4(C)[C@H]3CC[C@]12C [Ursodeoxycholic acid] |  | + (Mean uptake of bile acids “+” for values below 500) | 
myr-preS1: 2–48 N-terminal amino acids of the myristoylated preS1 domain of the HBV/HDV large envelope protein (GQNLSTSNPLGFFPDHQLDPAFRANTANPDWDFNPNKDTWPDANKVG; N-terminal myristoyl on Gly2) |  |  | IC50 (NTCP [2]; read-out: IC50 for inhibition of [3H]DHEAS transport via NTCP, 200 nM DHEAS): 167 nM; IC50 (NTCP [2]; read-out: IC50 for inhibition of [3H]TC transport via NTCP, 200 nM TC): 182 nM; IC50 (NTCP [2]; read-out: IC50 for inhibition of [3H]TLC transport via NTCP, 200 nM TLC): 316 nM
